Data taken from US12251458B1, “Anti-aging preparation for skin and application thereof” (South China Normal University, priority 2023, dated 2025).

Experiments:
[1] = test system: MMP-13; assay: MMP-13 mRNA level in treated back skin of mice (fluorescent quantitative PCR); format: in vivo, C57BL/6 mice; conditions: aqueous solution 0.5 M (so in the source) applied to hair-removed back skin once a day for 30 days, P=0.0171
Experimental: (§1) Sodium 4-[(1E)-2-[[(4-chlorophenyl)methyl]sulfonyl]alkyne]-benzoate was dissolved in water to prepare an aqueous solution of sodium 4-[(1E)-2-[[(4-chlorophenyl)methyl]sulfonyl]alkyne]-benzoate (i.e., an anti-aging preparation for skin). Six healthy C57BL/6 mice aged 6-8 weeks with similar body sizes were selected, and the hair on the backs of the mice was removed gently and harmlessly to expose a similar area of skin on the back of each mouse. The six mice were divided into two groups equally. […]
Experimental method: after continuously applying an aqueous solution containing 0.5 M of sodium 4-[(1E)-2-[[(4-chlorophenyl)methyl]sulfonyl]alkyne]-benzoate or pure water as a blank control to the backs of mice for 30 days, the mice were euthanized for cutting the skin from the treated areas, and the fluorescent quantitative PCR method was used for detecting the mRNA level of MMP-13 in skin tissue. Specifically, total RNA was extracted from skin tissues, and subjected to reverse transcription to obtain cDNA, which was then subjected to fluorescence quantitative PCR. After the end of reaction, an amplification curve and a melting curve of the fluorescent quantitative PCR were confirmed, with GAPDH as an internal reference gene. The results were analyzed using the internationally accepted 2^−ΔΔCt method. […]

[2] = test system: dermal thickness in skin; assay: Dermal thickness in treated back skin of mice (HE staining); format: in vivo, C57BL/6 mice
Experimental: (§2) Sodium 4-[(1E)-2-[[(4-chlorophenyl)methyl]sulfonyl]alkyne]-benzoate was dissolved in water to prepare an aqueous solution of sodium 4-[(1E)-2-[[(4-chlorophenyl)methyl]sulfonyl]alkyne]-benzoate (i.e., an anti-aging preparation for skin). Six healthy C57BL/6 mice aged 6-8 weeks with similar body sizes were selected, and the hair on the backs of the mice was removed gently and harmlessly to expose a similar area of skin on the back of each mouse. The six mice were divided into two groups equally. The same volume of pure water and aqueous solutions containing […] sodium 4-[(1E)-2-[[(4-chlorophenyl)methyl]sulfonyl]alkyne]-benzoate were applied, respectively, to the hair-removed skin on the backs of the mice once a day for 30 consecutive days.
Experimental method: after continuously applying an aqueous solution containing 0.5 μM of sodium 4-[(1E)-2-[[(4-chlorophenyl)methyl]sulfonyl]alkyne]-benzoate or pure water as a blank control to the backs of mice for 30 days, the mice were euthanized for cutting the skin from the treated areas, and hematoxylin-eosin (HE) staining method was used for detecting the dermal thickness in the skin. Specifically, the tissues were fixed, dehydrated with a sucrose solution, embedded in OCT, sliced, stained with hematoxylin, counterstained blue with tap water, stained with eosin, dehydrated and cleared, and then mounted.

[3] = test system: fibroblasts; assay: Cell viability of fibroblasts after administration (status photographed under a microscope); format: cell-based, C57BL/6 mice; conditions: 0.5 μM, 24 h and 48 h
Experimental: (§3) Experimental method: skin tissues were taken from the backs of newborn C57BL/6 mice, and fibroblasts obtained from mice were isolated and purified. […] The third-generation of fibroblasts were taken for experiments.
Experimental method: the third-generation of fibroblasts was uniformly inoculated into a six-well plate. In the blank control group, the fibroblasts were cultured in a normal medium, and in the sodium 4-[(1E)-2-[[(4-chlorophenyl)methyl]sulfonyl]alkyne]-benzoate treatment group, the fibroblasts were cultured in a medium containing 0.5 μM of sodium 4-[(1E)-2-[[(4-chlorophenyl)methyl]sulfonyl]alkyne]-benzoate (i.e., normal medium containing 0.5 μM of sodium 4-[(1E)-2-[[(4-chlorophenyl)methyl]sulfonyl]alkyne]-benzoate). After culturing for 24 h and 48 h, respectively, the status of fibroblasts was photographed under a microscope.

[4] = test system: COL1A2; assay: COL1A2 mRNA level in treated back skin of mice (fluorescent quantitative PCR); format: in vivo, C57BL/6 mice; conditions: aqueous solution 0.5 μM applied to hair-removed back skin once a day for 30 days, P=0.0178
Experimental: as §1
(§4) Experimental method: after continuously applying the same volume of aqueous solutions containing 0.5 μM of sodium 4-[(1E)-2-[[(4-chlorophenyl)methyl]sulfonyl]alkyne]-benzoate or pure water as a blank control to the backs of mice for 30 days, the mice were euthanized for cutting the skin from the treated areas. The Westernblot method was employed to detect the protein level of COL1A2, and the fluorescent quantitative PCR method was employed to detect the mRNA level of COL1A2.
Fluorescence quantitative PCR experiment was performed specifically as follows. Total RNA was extracted from skin tissues, and subjected to reverse transcription to obtain cDNA, which was then subjected to fluorescence quantitative PCR. After the end of reaction, an amplification curve and a melting curve of the fluorescent quantitative PCR were confirmed, with GAPDH as an internal reference gene. […]

[5] = test system: COL1A2; assay: COL1A2 expression in mouse skin fibroblasts by fluorescent quantitative PCR; format: cell-based, C57BL/6 mice; conditions: for expression of COL1A2 in the fibroblasts relative to blank control group: mouse skin fibroblasts
Excerpt: as §3
Experimental method: the COL1A2 level was detected using fluorescent quantitative polymerase chain reaction (PCR) method. The experiment was divided into two major groups: a blank control group and a sodium 4-[(1E)-2-[[(4-chlorophenyl)methyl]sulfonyl]alkyne]-benzoate treatment group. In the blank control group, the fibroblasts were cultured in a normal medium; and in the sodium 4-[(1E)-2-[[(4-chlorophenyl)methyl]sulfonyl]alkyne]-benzoate treatment group, the fibroblasts were treated with five media containing different concentrations (0.1 μM, […], 1 μM, 3 μM, and 6 μM) of sodium 4-[(1E)-2-[[(4-chlorophenyl)methyl]sulfonyl]alkyne]-benzoate (i.e., normal medium added with sodium 4-[(1E)-2-[[(4-chlorophenyl)methyl]sulfonyl]alkyne]-benzoate at the aforementioned concentrations) for 24 h. The specific process was as follows. The third-generation of fibroblasts was uniformly inoculated into a six-well plate. In the blank control group, the fibroblasts were cultured in the normal medium, and in the sodium 4-[(1E)-2-[[(4-chlorophenyl)methyl]sulfonyl]alkyne]-benzoate treatment group, the fibroblasts were cultured in media containing sodium 4-[(1E)-2-[[(4-chlorophenyl)methyl]sulfonyl]alkyne]-benzoate at the corresponding concentrations. After 24 h of culture, total RNA was extracted from the fibroblasts and subjected to reverse transcription to obtain complementary deoxyribonucleic acid (cDNA), which was then subjected to fluorescent quantitative PCR. After the end of reaction, an amplification curve and a melting curve of the fluorescent quantitative PCR were confirmed, with glyceraldehyde-3-phosphate dehydrogenase (GAPDH) as an internal reference gene. The results were analyzed using the internationally accepted 2^−ΔΔCt method.
Total RNA of fibroblasts was extracted using standard laboratory RNA extraction method and stored at −80° C. for later use. The extracted total RNA of fibroblasts was used as a template to synthesize cDNA by using the standard laboratory method, and the synthesized cDNA was stored at −20° C. for later use.
Fluorescent quantitative PCR system: 10 μL of qPCR SYBR Green Master Mix, 2 μL of 2 μM upstream primer, 2 μL of 2 μM downstream primer, and 1000 ng of cDNA template, a total volume of 20 μL by supplementing with diethyl pyrocarbonate (DEPC)-treated water.
Reaction conditions: pre-denaturation at 95° C. for 5 min, followed by 40 cycles of 10 sec at 95° C., 20 sec at 52.9° C., and 20 sec at 72° C. After the end of reaction, the melting curve was analyzed.
Experimental method: the COL1A2 level was detected using fluorescent quantitative PCR method. The experiment was divided into two major groups: a blank control group and a sodium 4-[(1E)-2-[[(4-chlorophenyl)methyl]sulfonyl]alkyne]-benzoate treatment group. In the blank control group, the fibroblasts were cultured in a normal medium; and in the sodium 4-[(1E)-2-[[(4-chlorophenyl)methyl]sulfonyl]alkyne]-benzoate treatment group, the fibroblasts were cultured in a medium containing 0.5 μM of sodium 4-[(1E)-2-[[(4-chlorophenyl)methyl]sulfonyl]alkyne]-benzoate, with incubation times of 24 h, 48 h, and 72 h. The specific process was as follows. The third-generation of fibroblasts was uniformly inoculated into a six-well plate. In the blank control group, the fibroblasts were cultured in a normal medium, and in the sodium 4-[(1E)-2-[[(4-chlorophenyl)methyl]sulfonyl]alkyne]-benzoate treatment group, the fibroblasts were cultured in a medium containing 0.5 μM of sodium 4-[(1E)-2-[[(4-chlorophenyl)methyl]sulfonyl]alkyne]-benzoate (i.e., normal medium containing 0.5μ M of sodium 4-[(1E)-2-[[(4-chlorophenyl)methyl]sulfonyl]alkyne]-benzoate). […]

[6] = test system: collagen fiber content in skin; assay: Collagen fiber content in treated back skin of mice (Masson staining); format: in vivo, C57BL/6 mice
Experimental: as §2
Experimental method: after continuously applying an aqueous solution containing 0.5 μM of sodium 4-[(1E)-2-[[(4-chlorophenyl)methyl]sulfonyl]alkyne]-benzoate or pure water as a blank control to the backs of mice for 30 days, the mice were euthanized for cutting the skin from the treated areas, and the Masson staining method was used for detecting the collagen fiber content in the skin. […]

[7] = test system: COL1A2; assay: COL1A2 protein level in treated back skin of mice (Westernblot); format: in vivo, C57BL/6 mice; conditions: aqueous solution 0.5 μM applied to hair-removed back skin once a day for 30 days, P=0.0378
Experimental: as §1, §4
The specific process for the Westernblot experiment was as follows. […] After fluorescent secondary antibodies were incubated, the samples were visualized using an infrared fluorescence scanning imaging system. […]

[8] = same effect verification as Examples 1 and 2

SMILES	mRNA level of MMP-13 in skin, decrease compared to pure water blank control group [1] [times]	dermal thickness in the skin, increase compared to pure water blank control group ([2]; aqueous solution 0.5 μM applied to hair-removed back skin once a day for 30 days, P=0.0004) [times]	viability / status of fibroblasts [3]	mRNA level of COL1A2 in skin, increase compared to pure water blank control group [4] [times]	expression of COL1A2 in the fibroblasts relative to blank control group ([5]; 0.5 μM, 24 h, P=0.0003) [times]	expression of COL1A2 in fibroblasts with extension of incubation time ([5]; 0.5 μM, incubation time from 24 h to 72 h)	expression of COL1A2 in fibroblasts compared to the blank control group ([5]; 0.5 μM, incubation time of 72 h)	expression of COL1A2 in the fibroblasts relative to blank control group ([5]; 1 μM, 24 h, P<0.0001) [times]	expression of COL1A2 in the fibroblasts ([5]; any other concentrations (0.1 μM, 3 μM, 6 μM), 24 h)	collagen fiber content in the skin, increase compared to pure water blank control group ([6]; aqueous solution 0.5 μM applied to hair-removed back skin once a day for 30 days, P=0.0010) [times]	protein level of COL1A2 in skin, increase compared to pure water blank control group [7] [times]	increasing the dermal thickness in the skin, compared with the sodium salt [2, 8]	increasing the expression of type I collagen (COL1A2) in cells, compared with the sodium salt [5, 8]	increasing the collagen fiber content in the skin, compared with the sodium salt [6, 8]
O=C([O-])c1ccc(/C=C/S(=O)(=O)Cc2ccc(Cl)cc2)cc1.[Na+]	0.5124	2.9101	no adverse effects on viability of fibroblasts	2.681	1.613	decreases	no difference	1.173	cannot increase the expression of COL1A2	3.3904	4.024	–	–	–
O=C(O)c1ccc(/C=C/S(=O)(=O)Cc2ccc(Cl)cc2)cc1	–	–	–	–	–	–	–	–	–	–	–	equivalent effects	equivalent effects	equivalent effects
